{"source": "patent US12239132B2", "about": "“Compounds and methods for increasing soil nutrient availability” (SOUND AGRICULTURE COMPANY, priority 2018, dated 2025)", "key": {"[1]": {"test": "Field trial of soil phosphate depletion on Iowa farmland", "type": "in vivo", "settings": "Iowa field plots, vs untreated plots", "experimental": "Available soil phosphate was measured at the beginning of the growing season (Pre VT) and at the end of the growing season (Post VT).\nThe solubilizing activity of AB09 was measured in field trials on Iowa farmland. Over the course of a growing season, plants pull available phosphate from the soil, resulting in lower levels at the end of the season versus at the beginning. This phosphate depletion can be measured with standard soil tests."}, "Bacillus megaterium": {"tested_on": "Bacillus megaterium", "test": "Phosphate solubilization assay with Bacillus megaterium (liquid NBRIP, malachite green)", "type": "cell-based", "settings": "100 ug/mL; for clearing (consumption) of insoluble phosphate in culture tubes, qualitative: B. megaterium in NBRIP", "experimental": "In some aspects, a compound disclosed herein, e.g., AB09, stimulates bacterial phosphate solubilization activity. […] Cultures of B. megaterium were grown in media containing only insoluble phosphorus with and without a compound such as AB09. At the start of the experiment, there was no detectable difference of orthophosphate levels in the growth media alone and media supplemented with B. megaterium and/or AB09. Orthophosphate was measured after 72 hours of bacterial growth. Specifically, A 5 mL culture of B. megaterium was seeded from a single colony into Nutrient Broth (NB) and grown overnight in a 30° C. shaker. The cell pellet was collected by centrifugation, washed twice and resuspended in water. The concentration of B. megaterium was measured using a Nanodrop OD600 reading. B. megaterium was inoculated into liquid NBRIP media, which contains insoluble tricalcium phosphate as its sole phosphorus source. The final concentration of B. megaterium in the NBRIP media was OD600=0.02 ([…]). NBRIP media was supplemented with ML in a 1% DMSO solution to a final concentration of 100 ug/ML or 1% DMSO (both were filter sterilized through a 0.2 uM filter). Cell counts at the start of the experiment (0 hours) and at 72 hours post inoculation were measured using dilution plating. At the experiment start and after 72 hours of growth, 1 mL of culture was collected from the culture tubes. The supernatant was collected by centrifugation (5 min at 13,000 rpm). The cleared supernatant was diluted […] in molecular grade water and used for orthophosphate analysis. The remaining 4 mL of supernatant were collected by centrifugation for pH readings. Orthophosphate was measured using the malachite-green phosphate method (BioAssay Systems Malachite Green Phosphate Assay Kit Catalog No: POMG-25H). Briefly, the sample is mixed with a solution of Malachite Green and molybdate, which forms a green complex with free orthophosphate from the sample. Data are quantified on a plate reader at 620 nm. Unknown samples were run with a standard curve of known concentrations of orthophosphate. […] Phosphate solubilization in NBRIP culture media is shown at experiment start (0 h) and after 72 hours of shaking at 30° C. The left axis corresponds to box plots and whisker plots of the concentration of solubilized phosphate in the bacterial supernatant. The right axis corresponds to the pH of the supernatant. n=7 culture tubes for each B. megaterium with and without ML, and n=3 culture tubes for no bacteria with and without AB09. The malachite green phosphate assay was performed in triplicate. […] In some instances, disclosed herein are experimental culture tubes of B. megaterium growing in NBRIP without ML (AB09; leftmost two tubes) and with 100 ug/mL ML (right three tubes).\nA strain of Bacillus megaterium (B. megaterium) was isolated from Iowa field soil and confirmed its ability to solubilize phosphorus by observing a cleared zone (or halo) around B. megaterium colonies when grown on solid media (NBRIP+Agar) containing only in insoluble form of phosphorus, Ca3(PO4)2. Cultures of B. megaterium were then grown in liquid NBRIP (containing only insoluble Ca3(PO4)2) with and without AB09. The growth media supernatant was analyzed for orthophosphate at the start of the experiment (0 h) and after 72 hours of growth by the malachite green quantification method.\nFIG. 1A illustrates phosphate solubilization in NBRIP culture media at experiment start (0 h) and after 72 hours of shaking at 30° C. The left axis corresponds to box plots and whisker plots of the concentration of available phosphate (orthophosphate) in the bacterial supernatant. […] The malachite green phosphate assay was performed in triplicate. FIG. 1B illustrates an example of experimental culture tubes of B. megaterium growing in NBRIP without AB09 (leftmost two tubes) and with 100 ug/mL AB09 (right three tubes). […]"}, "[2]": {"tested_on": "phosphate solubilizing bacteria (PSB)", "test": "Halo assay of phosphate solubilizing bacteria on agar plates containing insoluble phosphate", "type": "cell-based", "settings": "AB09 treated PSB vs control treated PSB", "source_text": "Larger halos indicate higher microbial solubilization activity."}}, "note": "Entries after “also recorded” stand apart in the source; their conditions may differ."}
{"smiles": "CC1=CC(Oc2c(C)occc2=O)OC1=O", "note": "(stereo not shown) [AB09, maltol lactone]", "values": [{"measurement": "soil phosphate depletion over the growing season (pre VT to post VT)", "setting": "[1]", "result": "less phosphate depletion; also recorded: significantly reduced"}, {"measurement": "pH of the growth media (supernatant)", "setting": "Bacillus megaterium; 72 hours, concurrent with phosphate solubilization increase", "result": "decrease"}, {"measurement": "clearing (consumption) of insoluble phosphate in culture tubes, qualitative", "setting": "Bacillus megaterium", "result": "increased clearing"}, {"measurement": "clearing (consumption) of insoluble phosphate in culture tubes, qualitative", "setting": "Bacillus megaterium; listed as ML", "result": "Increased consumption"}, {"measurement": "average concentration of orthophosphate in B. megaterium cultures compared to control cultures", "setting": "Bacillus megaterium; NBRIP media with insoluble Ca3(PO4)2, 72 hours", "result": "significantly increased"}, {"measurement": "phosphate solubilization increase", "setting": "Bacillus megaterium; NBRIP media, 72 hours, vs control B. megaterium cultures", "result": "two-fold"}, {"measurement": "clearance halos around PSB colony", "setting": "[2]", "result": "larger clearance"}]}
